Source: the COVID Moonshot data (paper PMC7615835)
Where “and” joins values, the source holds several entries; their conditions need not be identical. Equal entries are not always repeated.

molecular target: SARS-CoV-2 Main Protease (SARS-CoV-2) (UniProt P0DTD1)

| SMILES | IC50 |
| --- | --- |
| COc1ccc2c(c1)CN(C(=O)CCl)C(c1ccccc1)C2 (stereo not given) | 3.74 µM |
| O=C(Nc1cncc2sc(Cl)cc12)C1CCOc2ccc(Cl)cc21 (stereo not given) | 1.03 µM |
| Cn1c(NC(=O)c2cccnc2-n2cccn2)nc2cc(F)ccc21 | > 99.5 µM |
| COc1ccc([N+](=O)[O-])cc1COC(=O)c1cnc2ccccc2n1 | > 99.5 µM |
| COc1ccc(NC(=O)C(c2cccnc2)N(C(=O)c2cocn2)c2ccc(C(C)(C)C)cc2)cn1 (stereo not given) | 5.37 µM |
| O=C(NCc1ccccn1)[C@H]1CN(C(=O)CCl)CCN1S(=O)(=O)c1ccsc1 (stereo in doubt) | 0.307 µM |
| O=C1N(Cc2cccc(Cl)c2)CCN1c1nccc2n[nH]cc12 | 4.56 µM |
| O=C(Cn1cn[nH]c1=O)NC1CCCCCC1c1ccccc1C(F)(F)F (stereo not given) | > 99.5 µM |
| CC(C)(C)c1ccc(N(C(=O)c2nc(=O)[nH][nH]2)C(C(=O)NCCc2cccc(F)c2)c2cccnc2)cc1 (stereo not given) | > 99.5 µM |
| O=C(Cc1cc(Cl)cc(Nc2ccc([N+](=O)[O-])cc2Cl)c1)Nc1cncc2ccccc12 | 2.18 µM |
| O=C(Nc1cnc2nccn2c1)c1cn2c(Br)cnc2s1 | > 99.5 µM |
| O=C(NCc1ccc2[nH]c(=O)[nH]c2c1)Nc1ccc(F)c(F)c1 | > 99.5 µM |
| O=C(CCl)N1CCN(Cc2ccsc2)CC1 | 3.27 µM and 3.74 µM |
| CC(C)(C)NC(=O)CN1CC(C(=O)Nc2cncc3cc(S(C)(=O)=O)ccc23)c2cc(Cl)ccc2C1=O (stereo not given) | 0.248 µM |
| Cn1c(CNCC2(C(=O)Nc3cncc4ccccc34)CCOc3ccc(Cl)cc32)nc2c1c(=O)[nH]c(=O)n2C (stereo not given) | > 99.5 µM |
| Cn1ccn2c(CNc3nc4ccccc4s3)nnc2c1=O | > 99.5 µM |
| O=C(Cc1cc(Cl)cc(OC2CC(=O)N2)c1)Nc1cncc2ccccc12 (stereo not given) | 0.274 µM and 0.15 µM |
| O=C(Cc1cccc(Cl)c1)Nc1cnccc1C(F)(F)F | 18.2 µM and > 9.95 µM |
| Cc1cccc2c(NC(=O)Cc3cccc(Cl)c3)cncc12 | > 99.5 µM |
| CN1C(=O)c2ccc(Nc3cc(Cl)cc(CC(=O)Nc4cncc5ccccc45)c3)cc2C1=O | 1.66 µM |
| CCS(=O)(=O)Nc1ccc2c(NC(=O)C3CN(S(=O)(=O)CC4(C#N)CC4)Cc4ccc(Cl)cc43)cncc2c1 (stereo not given) | < 0.05 µM |
| Cn1c(C(NC(=O)Cc2cc3ccccc3[nH]2)c2cccc(Cl)c2)nc2ccccc21 (stereo not given) | > 99.5 µM |
| COc1ccc(-c2cc(COc3cc(Cl)cc(CC(=O)Nc4cnccc4C)c3)on2)cc1 | 62.7 µM and 81.5 µM |
| O=C(Cc1cc(Cl)cc(Nc2nc3cc(Cl)ccc3s2)c1)Nc1cncc2ccccc12 | 2.04 µM |
| N#Cc1cnn(-c2ccccn2)c1Nc1cc(Cl)cc(CC(=O)Nc2cncc3ccccc23)c1 | 1.72 µM |

| SMILES | IC50 |
| --- | --- |
| N#CC1(CS(=O)(=O)N2Cc3ccc(Cl)cc3[C@H](C(=O)Nc3cncc4ccccc34)C2)CCOCC1 (stereo in doubt) | 0.06 µM and 0.0875 µM |
| COc1ccc(N(Cc2cccc(Cl)c2)C(=O)Cn2nnc3ccccc32)cc1 | 1.14 µM |
| O=C1CC(N2CC(C(=O)Nc3cncc4ccccc34)c3cc(Cl)ccc3C2=O)CN1 (stereo not given) | 0.681 µM |
| O=C(Cn1nnc2ccccc21)N(Cc1ccccn1)c1ccc(-n2cnnc2)cc1 | > 99.5 µM |
| O=C1O[C@@]2(CCOc3ccc(Cl)cc32)C(=O)N1c1cncc2ccccc12 (stereo in doubt) | > 99.5 µM |
| O=C(Nc1cncc2cc(F)ccc12)[C@H]1CCS(=O)(=O)c2ccc(Cl)cc21 (stereo in doubt) | 24.5 µM |
| CN(C(=O)c1ccccc1N)c1cc(Cl)cc(CC(=O)Nc2cncc3ccccc23)c1 | 1.94 µM |
| Cc1cc2c(N3CCc4[nH]c5ccccc5c4C3)nccn2n1 | > 99.5 µM |
| Cc1cc(N)ncc1NC(=O)C1CCOc2ccc(Cl)cc21 (stereo not given) | > 99.5 µM |
| O=C(Cc1cc(Cl)cc(Nc2ccc(I)cn2)c1)Nc1cncc2ccccc12 | 2.21 µM |
| CC1(C(=O)Nc2cncc3cc(S(C)(=O)=O)ccc23)CN(CC(=O)NC2CC2)S(=O)(=O)c2ccc(Cl)cc21 (stereo not given) | 0.468 µM |
| N#Cc1ncn(CC(=O)Nc2ccc(Br)cc2Cl)n1 | 15.7 µM |
| O=C(Cc1cccc(Cl)c1)Nc1cncc2c1CCCN2 | 7.27 µM |
| O=C(Cc1c[nH]c2cc(Cl)ccc12)Nc1cccc2[nH]c(=O)[nH]c12 | > 99.5 µM |
| C=CC(=O)N(c1ccc(C(C)(C)C)cc1)C(C(=O)NCCc1cccc(F)c1)c1cncc(C)c1 (stereo not given) | 11.6 µM |
| Cc1ncc(CN2Cc3ccc(Cl)cc3C(C(=O)Nc3cncc4ccc(F)cc34)C2)[nH]1 (stereo not given) | 0.307 µM |
| CCCCc1nc(-c2nccn2CCc2ccccn2)c[nH]1 | 21.7 µM |
| Cc1ccncc1NC(=O)Cc1cncc(Cl)c1 | 46.4 µM |
| CC(C)(C)c1ccc(N(C(=O)CCC#N)C(C(=O)NCCc2cccc(F)c2)c2cccnc2)cc1 (stereo not given) | 3.8 µM |
| Cc1cc(I)ccc1Nc1cc(Cl)cc(CC(=O)Nc2cncc3ccccc23)c1 | 2.45 µM |
| O=C(NCCc1cccc(F)c1)C(c1cccnc1)N(C(=O)c1cnc[nH]1)c1ccc(Cn2cccn2)cc1 (stereo not given) | 35.5 µM |
| O=C(Cn1cnc2ccccc21)Nc1cccc(Cl)c1 | 87.2 µM |
| N#Cc1nccn1CCc1cccc(Cl)c1 | > 99.5 µM |
| Cn1nc(C(=O)N2CCOCC2)cc1C(=O)N(c1ccc(C(C)(C)C)cc1)C(C(=O)NCCc1cccc(F)c1)c1cccnc1 (stereo not given) | 92.1 µM |
| CC(C)(C)OC(=O)CNC(=O)C(c1cccnc1)N(C(=O)c1cocn1)c1ccc(C(C)(C)C)cc1 (stereo not given) | 8.18 µM |
